In paper PMC5698469, “Carrageenan catabolism is encoded by a complex regulon in marine heterotrophic bacteria” (Nature Communications, 2017):
Counter-ions that a name gives are not always drawn. Each block holds one compound with its values, some of them ahead of it.

Key:
[1] = biological target: 3,6-anhydro-D-galactonate cycloisomerase DauB (ZGAL_3156) (Zobellia galactanivorans); assay: SEC; size-exclusion column analysis of ZGAL_3156 in solution (Supplementary Fig. 9)
[2] = biological target: 3,6-anhydro-D-galactonate cycloisomerase DauB (ZGAL_3156) (Zobellia galactanivorans); assay: crystal structure; hanging drop vapor diffusion; 0.2 M tri potassium citrate, 20% PEG 3350, 25 mg/mL ZGAL_3156; data at 100 K
ZGAL_3145 (CgsA, S1_19) = biological target: T1, ZGAL_3145 (CgsA, S1_19) (Zobellia galactanivorans, UniProt G0L000); assay: sulfatase activity on artificial substrate; assay type: biochemical
T1 construct: gene zobellia_3145
T1 sequence (G0L000 44-511): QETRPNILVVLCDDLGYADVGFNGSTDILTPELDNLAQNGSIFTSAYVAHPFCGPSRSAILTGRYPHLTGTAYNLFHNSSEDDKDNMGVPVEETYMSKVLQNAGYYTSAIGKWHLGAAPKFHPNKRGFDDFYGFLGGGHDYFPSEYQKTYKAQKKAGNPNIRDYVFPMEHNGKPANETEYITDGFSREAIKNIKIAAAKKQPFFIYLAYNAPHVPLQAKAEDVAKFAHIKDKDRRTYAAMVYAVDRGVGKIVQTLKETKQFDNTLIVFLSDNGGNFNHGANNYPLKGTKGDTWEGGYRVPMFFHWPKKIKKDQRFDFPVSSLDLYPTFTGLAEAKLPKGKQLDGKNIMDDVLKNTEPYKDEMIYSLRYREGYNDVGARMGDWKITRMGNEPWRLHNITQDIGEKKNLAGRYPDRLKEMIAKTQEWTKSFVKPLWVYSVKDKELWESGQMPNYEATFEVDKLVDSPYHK

ZGAL_3146 (CgsB1, S1_7) = biological target: T2, ZGAL_3146 (CgsB1, S1_7) (Zobellia galactanivorans, UniProt G0L7B4); assay: sulfatase activity on artificial substrate; assay type: biochemical
T2 construct: gene idsA3
T2 sequence (G0L7B4 19-544): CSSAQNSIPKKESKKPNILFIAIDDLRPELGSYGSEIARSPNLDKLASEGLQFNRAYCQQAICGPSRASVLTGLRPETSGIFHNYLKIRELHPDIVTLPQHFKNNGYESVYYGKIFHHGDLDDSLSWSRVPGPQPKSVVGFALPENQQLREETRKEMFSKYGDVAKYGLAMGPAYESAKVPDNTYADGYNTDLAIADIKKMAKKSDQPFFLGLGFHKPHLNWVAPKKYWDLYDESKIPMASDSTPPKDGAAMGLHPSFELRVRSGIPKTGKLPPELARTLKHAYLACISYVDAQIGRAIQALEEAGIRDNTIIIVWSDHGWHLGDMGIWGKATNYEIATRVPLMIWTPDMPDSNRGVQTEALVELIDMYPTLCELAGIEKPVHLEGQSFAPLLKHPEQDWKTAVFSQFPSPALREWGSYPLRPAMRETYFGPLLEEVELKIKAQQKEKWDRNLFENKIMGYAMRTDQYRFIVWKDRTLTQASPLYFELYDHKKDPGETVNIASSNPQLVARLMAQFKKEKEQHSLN

ZGAL_3151 (CgsC, S1_17) = biological target: T3, ZGAL_3151 (CgsC, S1_17) (Zobellia galactanivorans, UniProt G0L7B6); assay: sulfatase activity on artificial substrate; assay type: biochemical
T3 construct: gene zobellia_3151
T3 sequence (G0L7B6 40-596): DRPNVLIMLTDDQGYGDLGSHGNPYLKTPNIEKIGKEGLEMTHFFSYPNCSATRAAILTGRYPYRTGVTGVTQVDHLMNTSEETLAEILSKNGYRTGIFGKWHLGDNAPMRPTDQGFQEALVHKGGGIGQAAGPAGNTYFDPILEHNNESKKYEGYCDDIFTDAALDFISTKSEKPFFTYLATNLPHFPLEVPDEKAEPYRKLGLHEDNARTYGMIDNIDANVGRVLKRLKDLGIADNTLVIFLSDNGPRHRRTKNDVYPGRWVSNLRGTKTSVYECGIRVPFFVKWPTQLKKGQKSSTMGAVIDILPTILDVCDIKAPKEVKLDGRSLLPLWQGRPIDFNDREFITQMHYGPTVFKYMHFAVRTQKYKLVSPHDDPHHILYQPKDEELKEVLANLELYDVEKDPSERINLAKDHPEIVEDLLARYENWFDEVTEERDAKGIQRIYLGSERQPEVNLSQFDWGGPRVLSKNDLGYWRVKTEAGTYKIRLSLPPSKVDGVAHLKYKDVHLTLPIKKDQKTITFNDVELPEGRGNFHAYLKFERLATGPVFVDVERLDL

[3] = biological target: T4, ZGAL_3152 (DagB, GH129-like) (Zobellia galactanivorans, UniProt G0L004); assay: FACE and MALDI-TOF-MS; assay type: biochemical; details: 0.5% hexasaccharide fraction, 150 mM NaCl, 3.75 mM CaCl2, 100 mM HEPES pH 7.5, room temperature overnight
T4 construct: gene zobellia_3152; recombinant, E. coli BL21(DE3), pFO4, IMAC purified; homodimer, residues Pro35-Asp693 described in structure

[4] = biological target: T5, ZGAL_3147 (DagA1, GH127-1) (Zobellia galactanivorans, UniProt G0L001); assay: FACE and MALDI MS, E. coli soluble lysate; assay type: biochemical; details: 0.5% hexasaccharide fraction, 150 mM NaCl, 3.75 mM CaCl2, 100 mM HEPES pH 7.5, room temperature overnight; vector-only lysate as control
T5 construct: gene zobellia_3147; recombinant, soluble lysate of E. coli BL21(DE3), pFO4
T5 sequence (G0L001 20-681): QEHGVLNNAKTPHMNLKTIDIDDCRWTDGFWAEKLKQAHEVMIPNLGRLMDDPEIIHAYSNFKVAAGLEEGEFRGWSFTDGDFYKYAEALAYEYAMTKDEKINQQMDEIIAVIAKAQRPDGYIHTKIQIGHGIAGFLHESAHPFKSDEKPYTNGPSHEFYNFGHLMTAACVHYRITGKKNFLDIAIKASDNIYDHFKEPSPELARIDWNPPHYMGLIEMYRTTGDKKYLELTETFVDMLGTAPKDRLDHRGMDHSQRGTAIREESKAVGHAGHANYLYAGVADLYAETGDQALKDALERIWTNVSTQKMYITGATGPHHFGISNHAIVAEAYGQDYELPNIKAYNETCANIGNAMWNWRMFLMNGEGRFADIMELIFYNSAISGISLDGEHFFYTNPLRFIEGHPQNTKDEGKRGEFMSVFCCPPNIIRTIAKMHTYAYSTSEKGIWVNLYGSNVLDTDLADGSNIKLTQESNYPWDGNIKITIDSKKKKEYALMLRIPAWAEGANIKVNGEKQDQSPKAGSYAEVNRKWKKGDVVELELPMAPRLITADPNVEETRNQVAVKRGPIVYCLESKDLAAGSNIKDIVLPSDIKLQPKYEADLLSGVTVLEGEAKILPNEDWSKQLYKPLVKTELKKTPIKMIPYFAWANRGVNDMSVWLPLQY

[5] = biological target: T6, ZGAL_3148 (DagA2, GH127-2) (Zobellia galactanivorans, UniProt G0L7B5); assay: FACE and MALDI MS, E. coli soluble lysate; assay type: biochemical; details: 0.5% hexasaccharide fraction, 150 mM NaCl, 3.75 mM CaCl2, 100 mM HEPES pH 7.5, room temperature overnight
T6 construct: gene zobellia_3148; recombinant, soluble lysate of E. coli BL21(DE3), pFO4
T6 sequence (G0L7B5 1-656): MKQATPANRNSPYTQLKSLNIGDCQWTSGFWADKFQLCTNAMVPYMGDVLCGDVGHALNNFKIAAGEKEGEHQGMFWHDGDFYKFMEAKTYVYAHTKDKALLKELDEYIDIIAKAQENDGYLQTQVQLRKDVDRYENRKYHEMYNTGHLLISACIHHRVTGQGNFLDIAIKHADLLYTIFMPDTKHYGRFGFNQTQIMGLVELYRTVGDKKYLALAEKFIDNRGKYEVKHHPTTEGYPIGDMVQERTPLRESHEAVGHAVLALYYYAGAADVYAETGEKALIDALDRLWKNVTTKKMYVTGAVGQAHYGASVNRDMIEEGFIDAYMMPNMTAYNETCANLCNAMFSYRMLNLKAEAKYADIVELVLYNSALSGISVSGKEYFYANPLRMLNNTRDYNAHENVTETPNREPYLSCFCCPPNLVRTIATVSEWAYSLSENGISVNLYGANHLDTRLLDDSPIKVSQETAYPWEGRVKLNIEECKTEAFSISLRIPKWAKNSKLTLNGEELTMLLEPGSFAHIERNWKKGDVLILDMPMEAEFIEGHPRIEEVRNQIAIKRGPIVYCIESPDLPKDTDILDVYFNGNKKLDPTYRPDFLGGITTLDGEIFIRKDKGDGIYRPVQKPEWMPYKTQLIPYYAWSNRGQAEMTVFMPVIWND

[6] = biological target: α-1,3-(3,6-anhydro)-D-galactosidase DagB (ZGAL_3152, GH129-like) (Zobellia galactanivorans); assay: crystal structure; hanging drop vapor diffusion; 0.14 M Na/K-tartrate, 12% PEG 3350, 9 mg/mL ZGAL_3152; data at 100 K

T4 sequence (G0L004 entry or part of it): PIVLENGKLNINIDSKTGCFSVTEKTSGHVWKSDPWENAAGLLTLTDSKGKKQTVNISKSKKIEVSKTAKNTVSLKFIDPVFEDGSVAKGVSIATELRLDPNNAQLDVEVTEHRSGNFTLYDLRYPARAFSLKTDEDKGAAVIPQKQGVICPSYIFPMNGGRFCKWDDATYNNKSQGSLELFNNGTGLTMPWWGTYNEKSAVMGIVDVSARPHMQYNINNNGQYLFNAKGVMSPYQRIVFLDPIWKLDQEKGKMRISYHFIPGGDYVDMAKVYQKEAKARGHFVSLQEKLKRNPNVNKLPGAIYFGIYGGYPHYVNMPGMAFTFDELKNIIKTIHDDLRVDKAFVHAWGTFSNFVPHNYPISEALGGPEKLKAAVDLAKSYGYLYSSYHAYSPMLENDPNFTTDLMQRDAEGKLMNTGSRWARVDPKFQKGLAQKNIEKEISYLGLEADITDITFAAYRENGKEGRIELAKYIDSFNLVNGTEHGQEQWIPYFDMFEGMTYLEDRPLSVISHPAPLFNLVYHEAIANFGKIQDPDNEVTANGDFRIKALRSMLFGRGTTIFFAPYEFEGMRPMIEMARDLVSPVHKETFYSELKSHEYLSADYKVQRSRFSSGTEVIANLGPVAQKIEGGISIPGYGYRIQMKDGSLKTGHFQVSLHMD

stoichiometry N [1]: 8 | stoichiometry N [2]: 8
Compound: 3,6-anhydro-D-galactonate cycloisomerase DauB (ZGAL_3156) (enzyme)

Compound: Cc1cc(=O)oc2cc(OS(=O)(=O)O)ccc12 [4-methylumbelliferyl sulfate]
sulfatase activity on artificial substrate (ZGAL_3145 (CgsA, S1_19)): shown to be active sulfatases using the artificial substrate 4-methylumbelliferyl sulfate | sulfatase activity on artificial substrate (ZGAL_3146 (CgsB1, S1_7)): shown to be active sulfatases using the artificial substrate 4-methylumbelliferyl sulfate | sulfatase activity on artificial substrate (ZGAL_3151 (CgsC, S1_17)): shown to be active sulfatases using the artificial substrate 4-methylumbelliferyl sulfate

Compound: O=C[C@H](O)[C@H]1OC[C@@H](O)[C@@H]1O [D-AnG]
FACE and MALDI-TOF-MS [3]: indicated the release of the terminal neutral monosaccharide D-AnG and of a pentasaccharide

Compound: O=S(=O)(O)O[C@@H]1[C@H](O[C@H]2O[C@@H]3CO[C@H]([C@H]2O)[C@H]3O[C@@H]2O[C@H](CO)[C@H](O)[C@H](O[C@H]3O[C@@H]4CO[C@@H]([C@H]4O)[C@H]3O)[C@H]2O)[C@@H](O)[C@H](O[C@@H]2[C@@H]3OC[C@H]2O[C@H](O[C@H]2[C@@H](OS(=O)(=O)O)[C@@H](CO)OC(O)[C@@H]2O)[C@@H]3O)O[C@@H]1CO (stereo partly drawn) [DP6 beta-kappa-kappa oligosaccharide]
FACE and MALDI MS, E. coli soluble lysate [4]: All the GHs showed activity on the furcellaran hexasaccharide, as demonstrated using FACE | FACE and MALDI MS, E. coli soluble lysate [5]: All the GHs showed activity on the furcellaran hexasaccharide, as demonstrated using FACE

stoichiometry N [6]: 2
Compound: α-1,3-(3,6-anhydro)-D-galactosidase DagB (ZGAL_3152, GH129-like) (enzyme)
